# Assay results from PMC11111404, “Discovery of potent small-molecule inhibitors of lipoprotein(a) formation” (Nature, 2024).
# Several values for one entry are separate records, joined by “and”; a condition that tells them apart may be missing. Identical values can stand only once. Marks after values point to notes of the source that are not given here.
# Columns and labels:
# [1] = tested on: Lp(a); test: Lp(a) levels in cynomolgus monkeys; format: in vivo, cynomolgus monkey (Macaca fascicularis); design: key to Mean_pCFB_vs_Veh / Mean_pCFB_vs_Veh (Lp(a)): % change from pre-dose, treated group compared with vehicle; key to Mean_pCFB / Mean_pCFB (Lp(a)): % change in Lp(a) from before dosing; Lp(a): unit not given here; conditions: for Mean_pCFB / Mean_pCFB_vs_Veh: Lp(a); for Mean_pCFB / Mean_pCFB_vs_Veh / Lp(a) / pCFB (Lp(a) pct change from baseline): female cynomolgus monkeys
# Experimental: Female or male Chinese Macaca fascicularis cynomolgus monkeys (as described in the figure legends) of unspecified ages with body weight ranging from 2.0 kg to 5.0 kg were housed in cages with a standard light cycle (12-h light, 12-h dark) at room temperature (20–26 °C); the relative humidity ranged from 30% to 70%. Monkeys were given fruits, vegetables or dietary enrichment as a form of environmental enrichment, and various cage enrichment devices. Purina Lab diet 5048C was provided BID and individual monkeys were identified by cage card. The monkeys were randomized to treatment groups by body weight and baseline plasma Lp(a) concentration, as determined by a commercially available Randox assay (Randox LP2757), using a BRAT for the study. In an example cynomolgus monkey study in which 39 monkeys were prescreened for baseline Lp(a) levels, the average Lp(a) level was 350 ± 57 µg ml^−1 (range 53–1,667 µg ml^−1). Monkeys were dosed orally with vehicle (purified water) or compounds QD or BID for 14 days, at dose levels and frequencies as previously described for each compound. Plasma samples were collected on days before dosing to establish baseline Lp(a) and after the morning dose during the study. Lp(a) levels were measured by an investigator who was blinded to group allocation using the Randox assay, and were quantified relative to the calibrator series (Randox LP3404). Data were analysed in GraphPad Prism v.9.5.1. The Lp(a) percentage change from before dosing in non-human primates was analysed by repeated measures ANOVA in SAS v.9.4 (SAS). At each time point, the Lp(a) percentage change for each treated group was compared with vehicle by the Bonferroni method.
# [2] = target: T1, plasmin activity (Rattus norvegicus, UniProt Q01177); test: Rat plasma plasmin (plasminogen) activity ex vivo after oral dosing; format: in vivo; conditions: rats treated orally at pharmacological doses
# T1 construct: Plasma samples were collected via the abdominal aorta; from tissue; host or cells: Citrated plasma of orally dosed male Sprague Dawley rats
# T1 sequence (Q01177 20-812 limits assumed): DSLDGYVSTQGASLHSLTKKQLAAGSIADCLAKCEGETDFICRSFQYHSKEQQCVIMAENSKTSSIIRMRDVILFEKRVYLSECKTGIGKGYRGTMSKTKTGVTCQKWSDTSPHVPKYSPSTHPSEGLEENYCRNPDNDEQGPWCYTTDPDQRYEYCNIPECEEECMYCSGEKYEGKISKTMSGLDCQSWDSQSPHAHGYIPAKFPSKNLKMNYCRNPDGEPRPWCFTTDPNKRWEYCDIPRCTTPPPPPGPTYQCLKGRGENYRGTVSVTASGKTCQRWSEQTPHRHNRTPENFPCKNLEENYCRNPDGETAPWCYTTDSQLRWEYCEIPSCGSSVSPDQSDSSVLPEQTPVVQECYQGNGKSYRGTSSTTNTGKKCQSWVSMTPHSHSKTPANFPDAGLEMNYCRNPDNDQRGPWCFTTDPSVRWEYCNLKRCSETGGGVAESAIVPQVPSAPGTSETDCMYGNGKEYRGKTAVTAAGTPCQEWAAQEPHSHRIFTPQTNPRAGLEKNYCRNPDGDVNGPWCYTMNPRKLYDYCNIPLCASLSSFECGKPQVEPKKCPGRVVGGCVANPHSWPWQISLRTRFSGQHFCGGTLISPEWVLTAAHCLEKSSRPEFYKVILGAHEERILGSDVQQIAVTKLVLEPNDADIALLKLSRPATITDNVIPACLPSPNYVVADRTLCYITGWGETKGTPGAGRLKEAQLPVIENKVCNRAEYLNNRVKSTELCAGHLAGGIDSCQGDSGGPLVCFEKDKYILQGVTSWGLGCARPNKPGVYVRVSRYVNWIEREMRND
# Experimental: Male Sprague Dawley rats (Charles River, average body weight 310 g, aged eight to nine weeks old) were housed in cages with a standard light cycle (12-h light, 12-h dark), at room temperature (22 ± 4 °C), with a relative humidity of 30–70%. Rats were identified by numbers on the cage cards. After arrival, rats were fed on a normal diet (Harlan Teklad diet 2014) and randomized to treatment groups (n = 5 per group) by baseline plasma plasminogen concentration and activity using a BRAT. LSN3441732 and LY3473329 were administered QD orally at three dose levels (3.7, 12.3 and 37 mg kg^−1; 3.2, 10.5 and 31.6 mg kg^−1 per dose, respectively) or vehicle (10 ml kg^−1, 1% HEC, 0.25% Tween-80, Antifoam) for four days. Terminal blood was drawn under general anaesthesia 24 h after the day-4 oral dose. Plasma samples were collected via the abdominal aorta into a premeasured anticoagulant BD Vacutainer used for blood collection (2.7 ml, buffered sodium citrate). The liver was flash frozen in liquid nitrogen. To measure plasminogen activity, 100 µl plasma per well was added to a 96-well plate (Corning) and the following were added to the indicated concentrations: 7.5 mM CaCl2 and 117 mM NaCl. Wells were mixed and warmed to 37 °C. Urokinase (Millipore) was added at 125 U per well and the plate was incubated at 37 °C for 4 min. The plasminogen substrate Chromogenix S-2251 (DiaPharma) was added to a concentration of 3.3 mM. The mixture was added and the plate was sealed and placed in a prewarmed plate reader, shaken, and the absorbance read every 30 s for 2 h. The maximum slope for each curve was determined and the percentage inhibition was calculated relative to untreated controls. Plasminogen protein was measured using ELISA kits for rat (Abcam ab157740) according to the manufacturer’s instructions. Plasminogen activity (percentage) and mass (µg ml^−1) in rat were analysed by ANOVA in JMP 16.1.0. The percentage reduction of plasminogen activity and mass for each treated group was compared with vehicle by Dunnett’s method.
# [3] = oral BID, day 1, individual animal
# [4] = oral BID, day 3, individual animal
# [5] = oral BID, day 5, individual animal
# [6] = oral BID, day 9, individual animal
# [7] = oral BID, day 14, individual animal
# [8] = oral QD, day 1, individual animal
# [9] = oral QD, day 3, individual animal
# [10] = oral QD, day 5, individual animal
# [11] = oral QD, day 9, individual animal
# [12] = oral QD, day 14, individual animal
compound,measurement,setting,value
Cl.O=C(O)[C@@H](Cc1ccccc1)[C@H]1CCNC1 [LSN3353871],Mean_pCFB,"[1]; BID, day 1",-17.16
same,Mean_pCFB_vs_Veh,"[1]; BID, day 1",1.08
same,Mean_pCFB,"[1]; BID, day 3",-35.64
same,Mean_pCFB_vs_Veh,"[1]; BID, day 3",-13.27
same,Mean_pCFB,"[1]; BID, day 5",-39.65
same,Mean_pCFB_vs_Veh,"[1]; BID, day 5",-25.29
same,Mean_pCFB,"[1]; BID, day 9",-24.57
same,Mean_pCFB_vs_Veh,"[1]; BID, day 9",-29.9
same,Mean_pCFB,"[1]; BID, day 14",-34.78
same,Mean_pCFB_vs_Veh,"[1]; BID, day 14",-34.93
same,Mean_pCFB,"[1]; QD, day 1",-15.58
same,Mean_pCFB_vs_Veh,"[1]; QD, day 1",2.65
same,Mean_pCFB,"[1]; QD, day 3",-24.41
same,Mean_pCFB_vs_Veh,"[1]; QD, day 3",-2.03
same,Mean_pCFB,"[1]; QD, day 5",-27.62
same,Mean_pCFB_vs_Veh,"[1]; QD, day 5",-13.26
same,Mean_pCFB,"[1]; QD, day 9",-15.91
same,Mean_pCFB_vs_Veh,"[1]; QD, day 9",-21.23
same,Mean_pCFB,"[1]; QD, day 14",-9.51
same,Mean_pCFB_vs_Veh,"[1]; QD, day 14",-9.65
same,decrease in Lp(a) levels,"[1]; cynomolgus monkeys, 20 mg kg^−1 BID for two weeks",up to 40%
same,"%Lp(a) max decrease (dose, mg/kg)","[1]; cynomolgus monkeys, 20 mg/kg BID, 14 days dosing",40 (20)^b %
same,Lp(a),"[1]; BID group, day -1 (before dosing), individual animal",62.7685 and 48.163 and 60.7172 and 13.635 and 18.9902 and 51.942 and 61.5505 and 31.6327
same,Lp(a),"[1]; BID group, day -14 (before dosing), individual animal",63.283 and 50.674 and 55.2892 and 13.5483 and 15.2575 and 51.2555 and 54.086 and 23.9562
same,Lp(a),"[1]; QD group, day -1 (before dosing), individual animal",64.272 and 49.5175 and 60.6415 and 25.2005
same,Lp(a),"[1]; QD group, day -14 (before dosing), individual animal",61.406 and 37.9278 and 38.7218 and 35.5823
same,Lp(a),[1]; [3],52.535 and 44.0168 and 46.6457 and 12.9142 and 11.7935 and 42.9437 and 23.7942 and 44.7918
same,pCFB (Lp(a) pct change from baseline),[1]; [3],-10.9306 and -19.5807 and -4.985 and -31.1282 and -18.9955 and -14.3923 and -20.5861 and -16.6452
same,Lp(a),[1]; [4],45.0043 and 39.4997 and 31.6748 and 8.965 and 6.9825 and 34.2685 and 20.4107 and 36.1685
same,pCFB (Lp(a) pct change from baseline),[1]; [4],-20.0709 and -45.3913 and -34.0392 and -59.2235 and -35.3595 and -26.5656 and -35.8749 and -28.5937
same,Lp(a),[1]; [5],38.5745 and 31.448 and 28.6503 and 10.7198 and 9.08 and 32.1393 and 18.0332
same,pCFB (Lp(a) pct change from baseline),[1]; [5],-38.7957 and -36.3639 and -50.6056 and -21.1294 and -46.9735 and -39.3758 and -35.1194 and -48.839
same,Lp(a),[1]; [6],44.675 and 39.068 and 37.0712 and 13.4855 and 14.776 and 41.9348 and 17.9605
same,pCFB (Lp(a) pct change from baseline),[1]; [6],-29.1163 and -20.9446 and -36.0875 and -0.7811 and -13.7109 and -20.8987 and -35.3809 and -39.6451
same,Lp(a),[1]; [7],55.7647 and 33.5363 and 40.4025 and 9.657 and 7.2775 and 34.1767 and 13.5137
same,pCFB (Lp(a) pct change from baseline),[1]; [7],-11.5208 and -32.1383 and -30.3443 and -28.9479 and -57.5008 and -35.5326 and -51.38 and -30.8982
same,Lp(a),[1]; [8],48.1358 and 37.1353 and 55.4155 and 18.3242
same,pCFB (Lp(a) pct change from baseline),[1]; [8],11.5412 and -39.7058 and -6.086 and -13.177 and -16.5026 and -22.2746 and -23.3982 and -15.0662
same,Lp(a),[1]; [9],39.5063 and 29.6812 and 40.6228 and 20.1472
same,pCFB (Lp(a) pct change from baseline),[1]; [9],-18.2339 and -33.7073 and 11.9206 and -19.0783 and -28.1629 and -38.7431 and -37.1309 and -32.1149
same,Lp(a),[1]; [10],37.3218 and 25.577 and 40.148 and 26.2523
same,pCFB (Lp(a) pct change from baseline),[1]; [10],-19.1894 and -13.6191 and -4.001 and -34.7759 and -8.718 and -58.5688 and -40.6072 and -41.5017
same,Lp(a),[1]; [11],56.5955 and 31.4135 and 43.3325 and 24.1392
same,pCFB (Lp(a) pct change from baseline),[1]; [11],-12.7796 and -20.572 and 2.106 and -9.614 and -0.2146 and -48.0895 and -9.936 and -28.1528
same,Lp(a),[1]; [12],39.3452 and 48.5785 and 37.4098 and 37.2848
same,pCFB (Lp(a) pct change from baseline),[1]; [12],-24.9526 and -29.9842 and 41.651 and -25.3919 and 24.0547 and -24.319 and -22.6937 and -14.4384
same,plasma plasmin activity measured ex vivo,[2],no inhibitory action
